The numbers were not newly measured in patent publication US9782610B2, “Nontoxic, non-endocrine disrupting, cytoprotective, UV-radiation resistant sunblock compositions” (3rd Rock Sunblock, Inc., priority 2007, dated 2017), which cites them from elsewhere.

The test system of series [1] is cancer cells.
In series [2] the test system is estrogenic activity. Conditions: uterine wet weight, cell height, cell proliferation assays.

Take `COc1ccc(C(=O)c2ccccc2)c(O)c1` [Benzophenone-3]: the “activity in cells / cancer cell growth” value in series [1] is listed as “made cancer cells grow more rapidly”. Moreover, in series [2], the estrogenicity entry was “highly estrogenic”. Take `Cc1ccc(C=C2C(=O)C3(C)CCC2C3(C)C)cc1` (stereo not drawn) [Example 4-MBC, 3-(4-methylbenxylidene) camphor]: the “activity in cells / cancer cell growth” value in series [1] is “made cancer cells grow more rapidly”. In series [2], the estrogenicity result is listed as “highly estrogenic”. In the case of `CC1CC(OC(=O)c2ccccc2O)CC(C)(C)C1` (stereo not drawn) [homosalate], the “activity in cells / cancer cell growth” value in series [1] is listed as “made cancer cells grow more rapidly”. On to `CCCCC(CC)COC(=O)c1ccc(N(C)C)cc1` (stereo not drawn) [octyl-dimethyl-PABA], for which the “activity in cells / cancer cell growth” value in series [1] is given as “made cancer cells grow more rapidly”.
